Source: the supplement of paper PMC13380429
± gives the standard deviation of the averaged measurements.

Tests used:
Conditions in all cases: 72 h
Caco-2 [1] = assay: cell viability relative to DMSO; higher = less toxic
Calu-3 [2] = assay: as above
HepG2 [3] = assay: as above
U2OS [4] = assay: as above
Vero E6 [5] = assay: as above
Caco-2 [6] = assay: relative viability EC50 (midpoint between 100% and the lowest measured viability); higher = less toxic
Calu-3 [7] = assay: as above
HepG2 [8] = assay: as above
U2OS [9] = assay: as above
Vero E6 [10] = assay: as above
Caco-2 [11] = assay: drug sensitivity score (DSS) for viability; higher = more toxic; extreme values may be limits of the assay
Calu-3 [12] = assay: as above
HepG2 [13] = assay: as above
U2OS [14] = assay: as above
Vero E6 [15] = assay: as above

Row | SMILES | cell viability (Caco-2 [1]; 1 nM) | cell viability (Caco-2 [1]; 10 nM) | cell viability (Caco-2 [1]; 100 nM) | cell viability (Caco-2 [1]; 1000 nM) | cell viability (Caco-2 [1]; 10000 nM) | cell viability (Calu-3 [2]; 1 nM) | cell viability (Calu-3 [2]; 10 nM) | cell viability (Calu-3 [2]; 100 nM) | cell viability (Calu-3 [2]; 1000 nM) | cell viability (Calu-3 [2]; 10000 nM) | cell viability (HepG2 [3]; 1 nM) | cell viability (HepG2 [3]; 10 nM) | cell viability (HepG2 [3]; 100 nM) | cell viability (HepG2 [3]; 1000 nM) | cell viability (HepG2 [3]; 10000 nM) | cell viability (U2OS [4]; 1 nM) | cell viability (U2OS [4]; 10 nM) | cell viability (U2OS [4]; 100 nM) | cell viability (U2OS [4]; 1000 nM) | cell viability (U2OS [4]; 10000 nM) | cell viability (Vero E6 [5]; 1 nM) | cell viability (Vero E6 [5]; 10 nM) | cell viability (Vero E6 [5]; 100 nM) | cell viability (Vero E6 [5]; 1000 nM) | cell viability (Vero E6 [5]; 10000 nM) | relative viability EC50 (Caco-2 [6]) | relative viability EC50 (Calu-3 [7]) | relative viability EC50 (HepG2 [8]) | relative viability EC50 (U2OS [9]) | relative viability EC50 (Vero E6 [10]) | drug sensitivity score (Caco-2 [11]) | drug sensitivity score (Calu-3 [12]) | drug sensitivity score (HepG2 [13]) | drug sensitivity score (U2OS [14]) | drug sensitivity score (Vero E6 [15])
1 | O=C(CCCCCCNC(=O)c1cnc(N(c2ccccc2)c2ccccc2)nc1)NO [ACY-1215] | 108% | 92.8% | 106% | 94.3% | 27.2% | 107% | 93.5% | 100% | 82% | 38.6% | 96.5% | 108% | 87.3% | 86% | 16.2% | 102% | 101% | 107% | 88.6% | 33.3% | 92.9% | 100% | 94.2% | 96.9% | 47.7% | 2.53 µM | 1.42 µM | 1.89 µM | 1.87 µM | 2.7 µM | 4.9 | 6 | 7 | 5.6 | 3.2
2 | COc1ccc2c(c1)CN(C)CC2c1ccc(Cl)c(Cl)c1 (stereo not given) [diclofensine] | 96.6% | 94% | 86% | 95.6% | 83.5% | 103% | 106% | 107% | 101% | 87.9% | 101% | 98.8% | 95.9% | 103% | 97.2% | 99.3% | 103% | 93.3% | 100% | 93.2% | 96% | 99.3% | 94.5% | 95.7% | 91.1% | > 10 µM | > 10 µM | > 10 µM | > 10 µM | > 10 µM | 0.6 | 0 | 0 | 0 | 0
3 | COc1ccc(COc2ccc(Cc3cnc(N)nc3N)cc2OC)cc1 [GW-2580] | 98.2% | 97.6% | 95.7% | 102% | 91.2% | 110% | 102% | 97.2% | 102% | 99.7% | 113% | 108% | 108% | 99.5% | 108% | 99.2% | 99.3% | 94.3% | 103% | 92.2% | 95.3% | 97.9% | 100% | 98.3% | 96% | > 10 µM | > 10 µM | > 10 µM | > 10 µM | > 10 µM | 0 | 0 | 0 | 0 | 0
4 | O=C1c2ccccc2C(=O)C1c1ccc(Br)cc1 [bromindione] | 105% | 70.7% | 95.6% | 80.8% | 96.3% | 107% | 93.8% | 103% | 95.6% | 106% | 103% | 103% | 107% | 108% | 99.5% | 104% | 99.7% | 102% | 96.5% | 102% | 102% | 103% | 103% | 104% | 99.4% | > 10 µM | > 10 µM | > 10 µM | > 10 µM | > 10 µM | 0 | 0 | 0 | 0 | 0
5 | COc1ccc2c3c([nH]c2c1)[C@H](CC(C)C)N1C(=O)[C@H](CCC(=O)OC(C)(C)C)NC(=O)[C@@H]1C3 [Ko143] | 95.7% | 99.6% | 91.8% | 91.4% | 93% | 89.8% | 100% | 97.7% | 98.6% | 97.9% | 101% | 86.3% | 92.5% | 85.6% | 97.9% | 98.7% | 101% | 98.1% | 100% | 94.1% | 99.3% | 96.7% | 101% | 93% | 97.7% | > 10 µM | > 10 µM | > 10 µM | > 10 µM | > 10 µM | 0 | 0 | 0 | 0 | 0
6 | NC[C@H]1O[C@H](O[C@H]2[C@H](O)[C@@H](O[C@H]3O[C@H](CO)[C@@H](O)[C@H](N)[C@H]3O)[C@H](N)C[C@@H]2N)[C@H](O)[C@@H](O)[C@@H]1O [kanamycin] | 94.3% | 93.1% | 88.1% | 89.3% | 96.1% | 100% | 104% | 101% | 114% | 95.2% | 109% | 88.9% | 88% | 96.5% | 98.5% | 102% | 102% | 96.1% | 98.3% | 98.2% | 109% | 106% | 99.3% | 99% | 102% | > 10 µM | > 10 µM | > 10 µM | > 10 µM | > 10 µM | 0 | 0 | 0 | 0 | 0
7 | C[C@@H](O)[C@H]1C(=O)N2C(C(=O)O)=C(S[C@@H]3CN[C@H](C(=O)Nc4cccc(C(=O)O)c4)C3)[C@H](C)[C@H]12 [ertapenem] | 101% | 114% | 84.3% | 96.3% | 85.9% | 98.2% | 99.7% | 94.4% | 89.7% | 97.8% | 90.9% | 97.4% | 93.2% | 103% | 91.9% | 94.7% | 98.9% | 96.8% | 101% | 99.5% | 106% | 98.3% | 106% | 100% | 103% | > 10 µM | > 10 µM | > 10 µM | > 10 µM | > 10 µM | 2.7 | 0 | 0 | 0 | 0
8 | Cc1ncc[nH]1 [2-methylimidazole] | 98.7% | 97.4% | 92.6% | 107% | 104% | 96.7% | 97.1% | 112% | 107% | 117% | 95.3% | 95.7% | 89.7% | 96.2% | 91.5% | 98.7% | 97.4% | 101% | 97.8% | 99% | 96.2% | 97.8% | 96.1% | 94.9% | 108% | > 10 µM | > 10 µM | > 10 µM | > 10 µM | > 10 µM | 0 | 0 | 0 | 0 | 0
9 | CC(C)[C@H]1[C@@H]2CC[C@@H](C2)[C@@H]1N | 96.8% | 98.9% | 106% | 100% | 83.9% | 102% | 99.7% | 98.6% | 96% | 104% | 89.5% | 95% | 93.6% | 97.4% | 90.1% | 103% | 102% | 98% | 93.6% | 92.1% | 89.6% | 99.3% | 88.5% | 95.3% | 108% | > 10 µM | > 10 µM | > 10 µM | > 10 µM | > 10 µM | 0.3 | 0 | 0 | 0 | 0
10 | CCOc1cc([C@@H](CS(C)(=O)=O)N2C(=O)c3cccc(NC(C)=O)c3C2=O)ccc1OC [apremilast] | 93.4% | 100% | 98.8% | 97.3% | 106% | 102% | 108% | 89.8% | 99.9% | 108% | 102% | 95% | 101% | 84.1% | 100% | 93.1% | 101% | 97.8% | 92.7% | 99.1% | 104% | 104% | 98.7% | 99.6% | 99.6% | > 10 µM | > 10 µM | > 10 µM | > 10 µM | > 10 µM | 0 | 0 | 0 | 0 | 0
11 | NC1CCN(c2nc3c(cc2F)c(=O)c(C(=O)O)cn3-c2ccc(F)cc2F)C1 (stereo not given) [tosufloxacin] | 96% | 99.9% | 111% | 99.4% | 81.7% | 95.1% | 103% | 101% | 103% | 124% | 88.1% | 87.6% | 95.9% | 96.3% | 78.6% | 97.3% | 104% | 98.6% | 102% | 95% | 101% | 101% | 108% | 101% | 99.7% | > 10 µM | > 10 µM | > 10 µM | > 10 µM | > 10 µM | 0.5 | 0 | 0 | 0 | 0
12 | N[C@@H](C(=O)O)c1ccc(C(=O)O)c(O)c1 (racemic) [4-carboxy-3-hydroxyphenylglycine-(RS)] | 98.6% | 97.4% | 92.6% | 110% | 103% | 94.7 ± 5.6% | 91.5 ± 6.3% | 95.95 ± 0.35% | 94.5 ± 1.1% | 99.5 ± 2% | 99.7 ± 6.4% | 113 ± 12% | 104 ± 6.9% | 107 ± 4% | 98.7 ± 16% | 97.1 ± 3% | 99.4 ± 2.1% | 97.8 ± 3.1% | 98.7 ± 4.6% | 105 ± 1.8% | 101.5 ± 0.78% | 98.35 ± 0.49% | 97.35 ± 0.92% | 102 ± 5.4% | 105 ± 12% | > 10 µM | > 10 µM | > 10 µM | > 10 µM | > 10 µM | 0 | 0 | 0 | 0 | 0
13 | COc1ccccc1OCC(O)CN1CCN(CC(=O)Nc2c(C)cccc2C)CC1 (stereo not given) [ranolazine] | 100% | 96.9% | 106% | 99.2% | 99.1% | 95% | 91.8% | 102% | 105% | 105% | 97.5% | 97.9% | 93% | 96.7% | 102% | 98.6% | 93.4% | 102% | 96.1% | 102% | 90.5% | 97.3% | 89.5% | 90.7% | 104% | > 10 µM | > 10 µM | > 10 µM | > 10 µM | > 10 µM | 0 | 0 | 0 | 0 | 0
14 | CC(=O)CC(c1ccccc1)c1c(O)c2ccccc2oc1=O (stereo not given) [warfarin] | 98% | 108% | 101% | 95.1% | 99.7% | 100% | 91.9% | 104% | 97.8% | 115% | 100% | 85.7% | 94.8% | 98.5% | 107% | 96% | 97.2% | 98.3% | 102% | 94.9% | 101% | 96.9% | 105% | 103% | 97.1% | > 10 µM | > 10 µM | > 10 µM | > 10 µM | > 10 µM | 0 | 0 | 0 | 0 | 0
